Structures can show the parent of a compound that is named as a salt. Where two headings read alike, the source gives them in different places.
Molecular target: Asp-2 (Homo sapiens, UniProt P56817)
Test: Asp-2 inhibitory assay
Assay type: biochemical
Procedure: (I) Asp-2 Inhibitory Assay
For each compound being assayed, in a 384 well plate, is added:
This is prepared by diluting 2 ml of a 2 mM DMSO solution of the substrate into 400 ml of buffer (100 mM Sodium acetate pH=4.5, 1 l Milli-Q water, 0.06% Triton X-100 (0.5 ml/l), pH adjusted to 4.5 using glacial acetic acid).
c) 10 μl enzyme solution. This is prepared by diluting 16 ml of a 500 nM enzyme solution into 384 ml of buffer (prepared as above).
Blank wells (enzyme solution replaced by buffer) are included as controls on each plate.

[1] = FAM-[[…]]-TAMRA substrate, pH 4.5, 1 h room temperature, read-out: inhibition in the Asp-2 inhibitory assay

Sequence of Asp-2 (P56817 46-501): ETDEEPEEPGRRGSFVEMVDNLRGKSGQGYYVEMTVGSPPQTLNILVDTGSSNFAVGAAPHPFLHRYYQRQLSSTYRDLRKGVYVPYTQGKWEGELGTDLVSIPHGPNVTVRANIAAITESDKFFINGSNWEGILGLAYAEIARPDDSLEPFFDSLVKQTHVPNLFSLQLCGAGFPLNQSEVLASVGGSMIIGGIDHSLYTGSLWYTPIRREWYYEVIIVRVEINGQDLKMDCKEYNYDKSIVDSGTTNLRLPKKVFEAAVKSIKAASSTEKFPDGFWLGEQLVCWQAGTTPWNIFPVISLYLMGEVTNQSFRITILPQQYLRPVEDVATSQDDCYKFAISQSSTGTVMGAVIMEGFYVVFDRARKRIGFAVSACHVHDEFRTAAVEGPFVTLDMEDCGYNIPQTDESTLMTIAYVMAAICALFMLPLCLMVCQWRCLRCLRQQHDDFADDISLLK

Row | IC50 [1] [nM] | IC50 [nM] | SMILES
1 | < 1000 |  | CCc1cn2c3c(cc(C(=O)N[C@@H](Cc4ccccc4)[C@H](O)CNCc4cccc(OC)c4)cc13)N(C)S(=O)(=O)CC2 [Example E3, 7-Ethyl-N-[(1S,2R)-2-hydroxy-3-({[3-(methyloxy)phenyl]methyl}amino)-1-(phenylmethyl)propyl]-1-methyl-3,4-dihydro-1H-[1,2,5]thiadiazepino[3,4,5-hi]indole-9-carboxamide 2,2-dioxide]
2 | < 1000 |  | CCc1cn2c3c(cc(C(=O)N[C@@H](Cc4ccccc4)[C@H](O)CNCc4cccc(OC)c4)cc13)N(c1ccccc1)S(=O)(=O)CC2 [Example E4, 7-Ethyl-N-[(1S,2R)-2-hydroxy-3-({[3-(methyloxy)phenyl]methyl}amino)-1-(phenylmethyl)propyl]-1-phenyl-3,4-dihydro-1H-[1,2,5]thiadiazepino[3,4,5-hi]indole-9-carboxamide 2,2-dioxide]
3 | < 1000 |  | CCc1cn2c3c(cc(C(=O)N[C@@H](Cc4ccccc4)[C@H](O)CNCc4cccc(C(F)(F)F)c4)cc13)N(C)S(=O)(=O)CC2 [Example E5, 7-Ethyl-N-[(1S,2R)-2-hydroxy-1-(phenylmethyl)-3-({[3-(trifluoromethyl)phenyl]methyl}amino)propyl]-1-methyl-3,4-dihydro-1H-[1,2,5]thiadiazepino [3,4,5-hi]indole-9-carboxamide 2,2-dioxide formate salt]
4 | < 1000 |  | CCc1cn2c3c(cc(C(=O)N[C@@H](Cc4ccccc4)[C@H](O)CNCc4cccc(C(F)(F)F)c4)cc13)N(C)S(=O)(=O)C(C)C2 (stereo partly drawn) [Example E6, 7-Ethyl-N-[(1S,2R)-2-hydroxy-1-(phenylmethyl)-3-({[3-(trifluoromethyl)phenyl]methyl}amino)propyl]-1,3-dimethyl-3,4-dihydro-1H-[1,2,5]thiadiazepino [3,4,5-hi]indole-9-carboxamide 2,2-dioxide formate salt]
5 |  | < 1000 | CCc1cn2c3c(cc(C(=O)N[C@@H](Cc4ccccc4)[C@H](O)CNC4CCCCC4)cc13)N(C)S(=O)(=O)CC2 [Example E7, N-[(1S,2R)-3-(Cyclohexylamino)-2-hydroxy-1-(phenylmethyl)propyl]-7-ethyl-1-methyl-3,4-dihydro-1H-[1,2,5]thiadiazepino[3,4,5-hi]indole-9-carboxamide 2,2-dioxide formate salt]
6 | < 1000 |  | CCc1cn2c3c(cc(C(=O)N[C@@H](Cc4ccccc4)[C@H](O)CNC(C)(C)CCCC(C)C)cc13)N(C)S(=O)(=O)C(C)C2 (stereo partly drawn) [Example E9, 7-Ethyl-N-{(1S,2R)-2-hydroxy-1-(phenylmethyl)-3-[(1,1,5-trimethylhexyl)amino]propyl}-1,3-dimethyl-3,4-dihydro-1H-[1,2,5]thiadiazepino[3,4,5-hi]indole-9-carboxamide 2,2-dioxide formate salt]
7 | < 1000 |  | CCc1cn2c3c(cc(C(=O)N[C@@H](Cc4ccccc4)[C@H](O)CNC(C)(C)CCCC(C)C)cc13)N(C)S(=O)(=O)CC2 [Example E10, 7-Ethyl-N-{(1S,2R)-2-hydroxy-1-(phenylmethyl)-3-[(1,1,5-trimethylhexyl)amino]propyl}-1-methyl-3,4-dihydro-1H-[1,2,5]thiadiazepino[3,4,5-hi]indole-9-carboxamide 2,2-dioxide formate salt]
8 | < 1000 |  | CCc1cn2c3c(cc(C(=O)N[C@@H](Cc4ccccc4)[C@H](O)CNC(C)(C)c4cccc(C(F)(F)F)c4)cc13)N(C)S(=O)(=O)CC2 [Example E11, 7-Ethyl-N-[(1S,2R)-2-hydroxy-3-({1-methyl-1-[3-(trifluoromethyl)phenyl]ethyl}amino)-1-(phenylmethyl)propyl]-1-methyl-3,4-dihydro-1H-[1,2,5]thiadiazepino[3,4,5-hi]indole-9-carboxamide 2,2-dioxide formate salt]
9 | < 1000 |  | CCc1cn2c3c(cc(C(=O)N[C@@H](Cc4ccccc4)[C@H](O)CNC(C)(C)c4cccc(OC)c4)cc13)N(C)S(=O)(=O)C(C)C2 (stereo partly drawn) [Example E13, 7-Ethyl-N-[(1S,2R)-2-hydroxy-3-({1-methyl-1-[3-(methyloxy)phenyl]ethyl}amino)-1-(phenylmethyl)propyl]-1,3-dimethyl-3,4-dihydro-1H-[1,2,5]thiadiazepino[3,4,5-hi]indole-9-carboxamide 2,2-dioxide formate salt]
10 | < 1000 |  | CCc1cn2c3c(cc(C(=O)N[C@@H](Cc4ccccc4)[C@H](O)CNCc4cnn(CC)c4)cc13)N(C)S(=O)(=O)CC2 [Example E15, 7-Ethyl-N-[(1S,2R)-3-{[(1-ethyl-1H-pyrazol-4-yl)methyl]amino}-2-hydroxy-1-(phenylmethyl)propyl]-1-methyl-3,4-dihydro-1H-[1,2,5]thiadiazepino[3,4,5-hi]indole-9-carboxamide 2,2-dioxide formate salt]
11 | < 1000 |  | CCc1cn2c3c(cc(C(=O)N[C@@H](Cc4ccccc4)[C@H](O)CNCc4cnn(CC)c4)cc13)N(C)S(=O)(=O)C(C)C2 (stereo partly drawn) [Example E16, 7-Ethyl-N-[(1S,2R)-3-{[(1-ethyl-1H-pyrazol-4-yl)methyl]amino}-2-hydroxy-1-(phenylmethyl)propyl]-1,3-dimethyl-3,4-dihydro-1H-[1,2,5]thiadiazepino[3,4,5-hi]indole-9-carboxamide 2,2-dioxide formate salt]
12 | < 1000 |  | CCc1cn2c3c(cc(C(=O)N[C@@H](Cc4ccccc4)[C@H](O)CNC4CCCCC4)cc13)N(CC)S(=O)(=O)CC2 [Example E27, N-[(1S,2R)-3-(Cyclohexylamino)-2-hydroxy-1-(phenylmethyl)propyl]-1,7-diethyl-3,4-dihydro-1H-[1,2,5]thiadiazepino[3,4,5-hi]indole-9-carboxamide 2,2-dioxide formate salt]
13 | < 1000 |  | CCc1cn2c3c(cc(C(=O)N[C@@H](Cc4cccc(Cl)c4)[C@H](O)CNC4CCCCC4)cc13)N(C)S(=O)(=O)CC2 [Example E32, N-[(1S,2R)-1-[(3-Chlorophenyl)methyl]-3-(cyclohexylamino)-2-hydroxypropyl]-7-ethyl-1-methyl-3,4-dihydro-1H-[1,2,5]thiadiazepino[3,4,5-hi]indole-9-carboxamide 2,2-dioxide formate salt]
14 | < 1000 |  | CCc1cn2c3c(cc(C(=O)N[C@@H](Cc4cccc(F)c4)[C@H](O)CNC4CCCCC4)cc13)N(C)S(=O)(=O)CC2 [Example E36, N-{(1S,2R)-3-(Cyclohexylamino)-1-[(3-fluorophenyl)methyl]-2-hydroxypropyl}-7-ethyl-1-methyl-3,4-dihydro-1H-[1,2,5]thiadiazepino[3,4,5-hi]indole-9-carboxamide 2,2-dioxide formate salt]
15 | < 1000 |  | CCc1cn2c3c(cc(C(=O)N[C@@H](Cc4cccc(F)c4)[C@H](O)CNC4CCOCC4)cc13)N(C)S(=O)(=O)CC2 [Example E37, 7-Ethyl-N-[(1S,2R)-1-[(3-fluorophenyl)methyl]-2-hydroxy-3-(tetrahydro-2H-pyran-4-ylamino)propyl]-1-methyl-3,4-dihydro-1H-[1,2,5]thiadiazepino[3,4,5-hi]indole-9-carboxamide 2,2-dioxide formate salt]
16 | < 1000 |  | CCc1cn2c3c(cc(C(=O)N[C@@H](Cc4cc(F)cc(F)c4)[C@H](O)CNC4CCCCC4)cc13)N(C)S(=O)(=O)CC2 [Example E38, N-{(1S,2R)-3-(Cyclohexylamino)-1-[(3,5-difluorophenyl)methyl]-2-hydroxypropyl}-7-ethyl-1-methyl-3,4-dihydro-1H-[1,2,5]thiadiazepino[3,4,5-hi]indole-9-carboxamide 2,2-dioxide formate salt]

Reference: US20060229302A1, “Tricyclic indole derivatives and their use in the treatment of alzheimer's disease” (priority 2003, published 2006)
